Source: patent publication EP2431387A1, “A raft deficient yeast expression system for the production of recombinant membrane proteins” (Centre National de la Recherche Scientifique (C.N.R.S), priority 2010, dated 2012)
Read-outs that look alike come from different tables or passages of the source. Blank lines part the entries; values can stand above or below the molecule they belong to.

Experiments:
DRD2 [1] = molecular target: T1, DRD2 (Homo sapiens, UniProt P14416); assay: Saturation radioligand binding assay on CHAPS/CHS solubilized receptors; conditions: DRD2 solubilized (CHAPS/CHS) from membranes of erg6 cells
T1 sequence (P14416 whole entry): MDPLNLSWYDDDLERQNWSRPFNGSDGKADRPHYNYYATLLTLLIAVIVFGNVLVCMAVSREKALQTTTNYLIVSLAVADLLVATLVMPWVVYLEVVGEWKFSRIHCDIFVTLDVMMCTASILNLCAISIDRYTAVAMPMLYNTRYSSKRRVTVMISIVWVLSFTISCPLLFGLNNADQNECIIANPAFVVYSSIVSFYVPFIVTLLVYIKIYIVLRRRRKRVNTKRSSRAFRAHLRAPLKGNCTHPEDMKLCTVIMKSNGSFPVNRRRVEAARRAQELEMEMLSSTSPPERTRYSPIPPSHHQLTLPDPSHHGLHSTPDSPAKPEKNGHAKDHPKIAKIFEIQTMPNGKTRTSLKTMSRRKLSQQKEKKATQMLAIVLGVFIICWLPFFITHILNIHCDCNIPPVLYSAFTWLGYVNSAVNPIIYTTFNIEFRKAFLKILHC
Experimental: (§1) For saturation binding assays, increasing concentrations of radioactive ligands ranging from 1 to 30 nM were added to 10 µg of proteins diluted in binding buffer (30 mM HEPES, pH 7.7, 0.15 M NaCl and 0.1% BSA). […] Non-specific binding was determined by the addition of 10 µM « cold » ligands using spiperone, prazozine, yohimbine and melatonin for DRD2, ADRA1, ADR2B and MTR1A, respectively. After 1-h incubation at RT, the reaction was terminated by rapid filtration of the samples through GF/B filters presoaked in 1 % polyethylenimine. The filters were washed 3 times with ice-cold buffer (Tris-HCI 50 mM, pH 7.4), and the radioactivity was measured by liquid-scintillation counting. The equilibrium dissociation constant, KD and the maximal number of binding sites, Bmax for radioligands were determined. The data were expressed as the mean ± standard error (SE) for at least three independant experiments performed in triplicate. Data were fitted through non-linear regression analysis with the one-site saturation binding model using the Prism 4 program of GraphPad.
(§2) Saturation binding experiments were performed on CHAPS/CHS solubilized receptors the same way than described in Example 4 in order to test receptor activity and stability (FIG.5).

DRD2 [2] = molecular target: T1, DRD2; assay: Saturation radioligand binding assay on crude membranes of P. pastoris cells; conditions: DRD2 expressed in membranes of erg6 cells
Experimental: as §1

MTR1A [3] = molecular target: T2, MTR1A (Homo sapiens, UniProt P48039)
T2 sequence (P48039 whole entry): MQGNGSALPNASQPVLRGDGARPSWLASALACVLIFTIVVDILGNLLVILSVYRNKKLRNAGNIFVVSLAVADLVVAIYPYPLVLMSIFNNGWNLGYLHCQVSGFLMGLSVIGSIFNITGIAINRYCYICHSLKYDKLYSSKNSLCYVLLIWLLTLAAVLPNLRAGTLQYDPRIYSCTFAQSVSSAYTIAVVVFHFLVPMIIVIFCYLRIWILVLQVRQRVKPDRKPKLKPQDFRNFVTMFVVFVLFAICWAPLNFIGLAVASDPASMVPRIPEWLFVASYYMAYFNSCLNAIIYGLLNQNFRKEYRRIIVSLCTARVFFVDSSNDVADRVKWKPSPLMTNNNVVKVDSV
Experimental: as §1

MTR1A [4] = molecular target: T2, MTR1A; remark: listed apart in the source
Experimental: as §1, §2

ADRA1A [5] = molecular target: T3, ADRA1A (Homo sapiens, UniProt P35348); conditions: ADRA1A solubilized (CHAPS/CHS) from membranes of erg6 cells
T3 sequence (P35348 whole entry): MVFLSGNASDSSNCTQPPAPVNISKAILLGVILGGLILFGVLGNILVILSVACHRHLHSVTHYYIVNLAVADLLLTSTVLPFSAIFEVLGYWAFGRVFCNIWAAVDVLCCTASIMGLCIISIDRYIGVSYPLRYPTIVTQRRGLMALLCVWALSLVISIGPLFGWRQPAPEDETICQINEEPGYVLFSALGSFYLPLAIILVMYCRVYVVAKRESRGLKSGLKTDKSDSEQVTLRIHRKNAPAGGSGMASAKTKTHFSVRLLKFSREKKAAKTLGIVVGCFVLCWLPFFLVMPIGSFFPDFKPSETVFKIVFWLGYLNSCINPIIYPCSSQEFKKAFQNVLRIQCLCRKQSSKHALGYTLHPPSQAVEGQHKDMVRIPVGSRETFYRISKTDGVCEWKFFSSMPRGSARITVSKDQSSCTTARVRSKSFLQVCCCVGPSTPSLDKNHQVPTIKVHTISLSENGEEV
Experimental: as §1, §2

ADRA1A [6] = molecular target: T3, ADRA1A
Experimental: as §1

Compound: O=C(CCCN1CCC2(CC1)C(=O)NCN2c1ccccc1)c1ccc(F)cc1 [[3H]-Spiperone]
- Bmax (DRD2 [1]): 42.79 ± 4.71 pmol/mg
- Bmax (DRD2 [2]): 62.20 ± 16.42 pmol/mg

Compound: COc1ccc2[nH]cc(CCNC(C)=O)c2c1 [[3H]-Melatonin]
- Bmax (MTR1A [3]; MTR1A expressed in membranes of WT cells): 4.86 ± 0.38 pmol/mg
- Bmax (MTR1A [3]; MTR1A expressed in membranes of erg6 cells): 1.35 ± 0.30 pmol/mg
- Bmax (MTR1A [4]; MTR1A solubilized (CHAPS/CHS) from membranes of WT cells): 2.91 ± 0.29 pmol/mg
- Bmax (MTR1A [4]; MTR1A solubilized (CHAPS/CHS) from membranes of erg6 cells): 5.13 ± 0.32 pmol/mg

- Bmax (ADRA1A [5]): 11.34 ± 0.71 pmol/mg
- Bmax (ADRA1A [6]; ADRA1A expressed in membranes of WT cells): 15.72 ± 2.09 pmol/mg
- Bmax (ADRA1A [6]; ADRA1A expressed in membranes of erg6 cells): 35.74 ± 1.11 pmol/mg
Compound: COc1cc2nc(N3CCN(C(=O)c4ccco4)CC3)nc(N)c2cc1OC [[3H]-Prazozine]
